In article PMC11596549 (Metabolites, 2024):
Like-named read-outs stand apart in the source and are kept apart here. Values belong to the molecule of their own block, whether it stands above or below them.

Experiments:
[1] = cited from earlier work
[2] = Pharmacokinetic drug interaction study: aripiprazole single dose alone or after 6-day bupropion pretreatment, LC-MS/MS quantification, non-compartmental analysis; details: for Vz_F / AUC(0-inf) / CL/F / Cmax / MRT / Tmax / k el: aripiprazole in rat plasma; for Vz_F / AUC(0-t) / AUC(0-inf) / CL/F / Cmax / MRT / Tmax / k el / half-life: mean ± S.D.; for AUC(0-t) / AUC(0-inf) / CL/F / Cmax / MRT / Tmax / k el / half-life: male, Wistar albino, rat, plasma, po, 8 mg/kg; for AUC(0-t): AUC0–30, aripiprazole in rat plasma; for AUC(0-inf): AUC0–∞; for CL/F: Cl_F; for k el: kel; for half-life: t1/2, aripiprazole in rat plasma
Protocol: The suspension was vortex-mixed before each administration. We considered 15 mg ARI a usual therapeutic dose in humans. We multiplied by 10 the dose for rats/kg, but a higher dose of 8 mg/kg body weight (b.w.) was chosen to be suitable for detection in rat plasma, considering the analytical method sensitivity. […] We administered 43 mg/kg b.w. in rats, multiplying the target dose in humans of 300 mg/day by 10.
Twenty-four Wistar albino male rats were divided into two groups.
The collection of blood samples was carried out using the BASi Culex ABC®-Automatic Blood Collector device (BASi, West Lafayette, IN, USA). This facilitated the collection of exact volumes per sample and at exact times post-administration. One day prior to blood sample collection, rats in both groups went through a surgical procedure consisting of a cannula insertion on the femoral vein under intramuscular anesthesia (0.1 mL/100 g b.w. of 1:1 ketamine and xylazine solution), which allowed the device to have access to the rats’ bloodstream. The excess blood drawn on the catheter was returned to the animal along with saline, replacing the volume of blood collected to avoid fluid depletion.
Blood samples, 200 μL each, were automatically drawn in heparinized Eppendorf tubes at 10, 20, 30, 45 min, 1, 1.5, 2, 2.5, 3, 4, 6, 8, 10, 12, 16, 20, 24 and 30 h after ARI single-dose administration in the two experimental groups, and they were immediately placed at −20 °C until further analysis.
Samples were precipitated using acetonitrile. For a 0.1 mL blood sample, 0.3 mL of acetonitrile were added. After the samples were vortex-mixed with IKA Vortex 2 (1000 rpm) for 10 s and centrifuged for 5 min at 10,000 rpm using a Sigma 3-30KS centrifuge (9168× g), the supernatant was injected into the HPLC system.
For concomitant quantification of ARI and D-ARI, a validated reverse-phase liquid chromatography coupled with tandem mass spectrometry (LC-MS/MS) method was developed. The HPLC system Agilent 1100 series with a binary pump, autosampler and thermostat (Agilent Technologies, Santa Clara, CA, USA) was used. The Bruker Ion Trap SL (Bruker Daltonics GmbH, Bremen, Germany) was used for detection. […] Haloperidol spiked into the thawed blood samples was used as an internal standard. The mobile phase consisted of water and 0.3% (m/v) formic acid as eluent A and acetonitrile as eluent B, eluted in a linear gradient (start with 20% acetonitrile, up to 2.5 min 38% acetonitrile, keep at 38% acetonitrile until 4.2 min, re-equilibrate with 20% acetonitrile for 2 min). The injection volume was 5 μL, the flow rate was 1 mL/min and the thermostat temperature was set at 40 °C. The MS detection was in multiple reaction monitoring mode (MRM), and the ESI-MS spectra were recorded in positive ion mode. The following mass transitions were used for analyte quantification: m/z 448 → m/z 285 for ARI, m/z 446 → m/z 285 for D-ARI and m/z 376 → m/z 165 for haloperidol. In these chromatographic conditions, the retention times were 2.80 min for haloperidol, 3.15 min for D-ARI and 3.55 min for ARI, respectively. The concentrations of the two analytes were determined by the instrument data system (QuantAnalysis software, Bruker Daltonics GmbH, Bremen, Germany) using peak area ratios versus concentration ratios of each analyte versus internal standard. The calibration curve model was determined for five calibration series by the linear least squares analysis, weighted (1/y2). […] The matrix effects were measured by comparing the response of the spiked plasma with the response of standards in solvent with the same concentration of ARI and D-ARI as in plasma, and for the measurement of the absolute recovery, a spike and a post-spiked sample were compared [31, 32].

[3] = cited from earlier work; for effect on D-ARI concentration / higher mean dose-adjusted concentration of ARI / change of serum concentrations of ARI and AM versus control group: TDM database; for effect on D-ARI concentration / higher mean dose-adjusted concentration of ARI: ARI combined with the antidepressant
[4] = ARI 8 mg/kg single dose after 6-day BUP 43 mg/kg pretreatment (test, n = 12)
[5] = ARI 8 mg/kg single dose alone (reference, n = 12)
[6] = rats, after BUP repeated doses vs ARI alone
[7] = co-medication, Japanese psychiatric patients

Vz_F [2, 4]: 20.67 ± 27.53 L/kg
Vz_F [2, 5]: 121.64 ± 143.94 L/kg
AUC(0-t) [2, 4]: 5390 ± 2980 ng·h/mL
AUC(0-t) [2, 5]: 1110 ± 931 ng·h/mL
AUC(0-inf) [2, 4]: 6310 ± 2980 ng·h/mL
AUC(0-inf) [2, 5]: 1120 ± 931 ng·h/mL
CL/F [2, 4]: 26.2 mL/min/kg
CL/F [2, 5]: 248 mL/min/kg
Cmax [2, 4]: 472 ± 217 ng/mL
Cmax [2, 5]: 240 ± 169 ng/mL
MRT [2, 4]: 19.2 ± 27.7 h
MRT [2, 5]: 4.63 ± 1.78 h
Tmax [2, 4]: 6.92 ± 2.47 h
Tmax [2, 5]: 1.65 ± 0.8 h
k el [2, 4]: 5e-05 s⁻¹
k el [2, 5]: 4.17e-05 s⁻¹
half-life [2, 4]: 11.5 ± 20.2 h
half-life [2, 5]: 5.56 ± 3.13 h
decrease of the apparent systemic clearance of ARI [2, 6]: over 9 fold
increase of the mean AUC0–30 of ARI [2, 6]: 4.85 fold
increase of the mean AUC0–∞ of ARI [2, 6]: 5.65 fold
increase of the mean Cmax of ARI [2, 6]: 96.76%
increase of the mean Cmax of ARI ([2]; rats, after BUP repeated doses vs ARI alone, listed as ARI): 2 fold
Compound: O=C1CCc2ccc(OCCCCN3CCN(c4cccc(Cl)c4Cl)CC3)cc2N1 [Aripiprazole]
absolute oral bioavailability (F) [1]: 87%
binding to plasma proteins [1]: > 99%
time to reach maximum plasma concentration [1]: 3 to 5 h
time to reach steady-state [1]: 14 days
elimination t1/2 ([1]; poor metabolizers (PMs)): 146 h

Compound: Fc1ccc([C@@H]2CCNC[C@H]2COc2ccc3c(c2)OCO3)cc1 [paroxetine]
effect on D-ARI concentration [3]: no effect
higher mean dose-adjusted concentration of ARI [3]: 45%
increase of the plasma concentrations of ARI [3, 7]: 1.7 fold
increase of the plasma concentrations of the active moiety (AM) [3, 7]: 1.5 fold

Compound: CC(NC(C)(C)C)C(=O)c1cccc(Cl)c1 (centres unmarked) [BUP, Bupropion]
oral bioavailability [1]: 90%

Compound: CNCCC(Oc1ccc(C(F)(F)F)cc1)c1ccccc1 (centres unmarked) [fluoxetine]
effect on D-ARI concentration [3]: no effect
higher mean dose-adjusted concentration of ARI [3]: 45%
increase of the C/D ratio of ARI compared to ARI monotherapy ([3]; routine TDM service, concomitant use): 44%

Compound: CN(C)CCC[C@@]1(c2ccc(F)cc2)OCc2cc(C#N)ccc21 [Escitalopram]
change of serum concentrations of ARI and AM versus control group ([3]; co-medication): slight but statistically significant
change of the systemic exposure to the AM ([3]; co-medication with ARI): did not significantly change

Compound: COc1ccc(C(CN(C)C)C2(O)CCCCC2)cc1 (centres unmarked) [venlafaxine]
change of serum concentrations of ARI and AM versus control group ([3]; co-medication): no significant influence

Compound: CNCC[C@H](Oc1cccc2ccccc12)c1cccs1 [duloxetine]
increase of the plasma concentrations of ARI ([3]; large TDM database, co-medication): 54.2%

Compound: CN[C@H]1CC[C@@H](c2ccc(Cl)c(Cl)c2)c2ccccc21 [sertraline]
change of serum concentrations of ARI and AM versus control group ([3]; co-medication): no significant influence
